The values below come from PubChem BioAssay AID1996.

In brackets after ≈: the same amount, converted by molar mass. Where only a bound is given, the exact number is not on record here.

The conditions of this data set: buffer; pH 7.4; 200.0 µM.
Regarding `Cc1ccc(NC(=O)NC2CCCCCCC2)cc1C`, the kinetic solubility is < 0.3 µg/mL.
To `COc1ccc(NC(=O)C2CCCN(C(=O)Nc3ccc(OC)cc3)C2)cc1` (configuration not stated) belongs 7.5 µg/mL (≈ 19.6 µM).
Take `Cc1ccc(C(=O)O)cc1NC(=O)C1=CSCCO1`: the solubility (kinetic) was > 41.9 µg/mL.
In turn, `CC(C)C(NS(=O)(=O)c1cc(C(=O)O)ccc1Cl)C(=O)O` (configuration not stated) registered a kinetic solubility of 44.7 µg/mL (≈ 133 µM).
As for `O=C(CN1CCOCC1)NNc1c2ccccc2nc2ccccc12`, the kinetic solubility was > 50.5 µg/mL.
Consider `CCCCCC1=NN2C(=O)CC(=O)N=C2S1`, for which the kinetic solubility is > 35.9 µg/mL.
With `O=C(CC(c1ccc(F)cc1)c1ccco1)Nc1nccs1` (configuration not stated), the kinetic solubility was determined as 14.7 µg/mL (≈ 46.5 µM).
Regarding `Cc1cc(OCC(=O)NCCc2c[nH]c3ccccc23)c2c(C)cc(=O)oc2c1`, the kinetic solubility is < 0.4 µg/mL.
To `O=C(COC(=O)c1cc(S(=O)(=O)N2CCOCC2)ccc1F)c1ccccc1` belongs > 61.1 µg/mL.
To `CC(C)OC(=O)/C(C#N)=C/c1cn(C)c2ccccc12` belongs 3.9 µg/mL (≈ 14.5 µM); to `COc1ccc(C(=O)NCc2ccccc2C)cc1S(=O)(=O)NC1CCCC1`, 33.6 µg/mL (≈ 83.5 µM).
Turning to `C=CCNC(=O)c1c(O)c2cccc3c2n(c1=O)CCC3`, the solubility (kinetic) was < 0.3 µg/mL.
To `O=S(=O)(c1cccc(F)c1)N1CCN(c2nc(-c3cccnc3)nc3ccccc23)CC1` belongs 1.2 µg/mL (≈ 2.67 µM).
To `O=C(NC1CC2CCC(C1)N2Cc1ccccc1)c1cccc(F)c1` (configuration not stated) belongs > 50.8 µg/mL; to `O=C(O)[C@H](Cc1ccccc1)Nc1ccc([N+](=O)[O-])cn1`, > 43.1 µg/mL; to `COc1ccc(-c2csc(Nc3ccccn3)n2)cc1`, < 0.2 µg/mL.
To `S=C(NCc1cccs1)Nc1cc(Cl)cc(Cl)c1` belongs 0.7 µg/mL (≈ 2.21 µM).
As for `Cc1cccc(C)c1N1C(=O)[C@@H]2C(c3ccccc3Cl)=NO[C@@H]2C1=O`, the kinetic solubility came to 39.6 µg/mL (≈ 112 µM).
To `Cn1ncc(Br)c1NC(=O)c1ccco1` belongs > 40.5 µg/mL.
To `FC(F)Oc1ccc(NC(=S)NCc2cccnc2)cc1` belongs > 46.4 µg/mL; to `O=C(NCc1csc(-c2cccs2)n1)Nc1ccc(C(F)(F)F)cc1`, < 0.3 µg/mL.
To `Cc1cccc(N2CCN(Cc3ccc4c(c3)OCO4)CC2)c1C` belongs 4 µg/mL (≈ 12.3 µM); to `O=C(/C=C/c1cccc(F)c1)Nc1cc(S(=O)(=O)N2CCOCC2)ccc1Cl`, 6.3 µg/mL (≈ 14.8 µM).
Regarding `COc1ccc(C(C)=O)cc1COC(=O)C1CCN(C(=O)c2ccc(Cl)cc2)CC1`, the solubility (kinetic) worked out at 33.5 µg/mL (≈ 77.9 µM).
To `Cc1cnc(C(=O)OCC(=O)c2ccc[nH]2)cn1` belongs > 36.8 µg/mL.
Turning to `O=C(COC(=O)C1CCCCC1)Nc1cccc(F)c1`, the kinetic solubility is > 41.9 µg/mL.
In turn, `O=Cc1cn(CC(=O)Nc2ccccc2)c2ccccc12` returned a solubility (kinetic) of 4.1 µg/mL (≈ 14.7 µM).
In turn, `Cc1ccc(NC(=O)C(C)SCc2nc3sc4c(c3c(=O)[nH]2)CCCC4)nc1` (configuration not stated) returned a kinetic solubility of 29.4 µg/mL (≈ 70.9 µM).
As for `COC(=O)[C@H](CC(C)C)NC(=O)Nc1ccc(S(N)(=O)=O)cc1`, the kinetic solubility is > 51.5 µg/mL.
`Nc1nc(C(F)(F)F)cc(=O)[nH]1` came in with a kinetic solubility of 22.8 µg/mL (≈ 127 µM).
To `CCN(C(=O)COc1ccc(N(C)S(=O)(=O)c2ccc(NC(C)=O)cc2)cc1)C1CCCCC1` belongs 18.9 µg/mL (≈ 38.8 µM).
As to `COc1ccc(N(CC(=O)N2CCOCC2)S(C)(=O)=O)cc1OC`, the kinetic solubility was > 53.8 µg/mL.
As for `CCSC1=NCCN1C(=O)c1c(-c2ccccc2Cl)noc1C`, the kinetic solubility was > 52.5 µg/mL.
As to `Cc1ccc(NS(=O)(=O)c2ccc3[nH]c(=O)[nH]c3c2)c(C)c1`, the kinetic solubility is 5 µg/mL (≈ 15.8 µM).
As for `Cc1ccccc1NC(=O)COC(=O)[C@@H]1CCCN1C(=O)c1cccs1`, the solubility (kinetic) was > 55.9 µg/mL.
`Cc1cccn2c(=O)c(C=O)c(N3CCN(C)CC3)nc12`: the solubility (kinetic) is > 42.9 µg/mL.
To `Cn1ccsc1=NC(=O)c1ccc(OC(F)(F)F)cc1` belongs 9.3 µg/mL (≈ 30.8 µM); to `COc1ccc(C(=O)OCC(=O)Nc2ccc(Cl)cn2)cc1`, 1.2 µg/mL (≈ 3.74 µM).
With `CCOC(=O)CNC(=O)CSc1nc(-c2ccccc2)ns1`, the kinetic solubility was > 50.6 µg/mL.
On to `Cc1ccccc1OCC(=O)NCCNC(=O)c1ccncc1`, for which the kinetic solubility was > 47 µg/mL.
In turn, `COc1ccccc1-n1cc(-c2ccccc2)c2c(=S)nc[nH]c21` came in with a kinetic solubility of 10.6 µg/mL (≈ 31.8 µM).
To `O=C(NC1CCCCC1)Oc1cc2oc(=O)sc2cc1Cl` belongs 10.1 µg/mL (≈ 30.8 µM); to `Cc1noc(C)c1-c1nc(CSc2ccc(Cl)cc2)no1`, < 0.2 µg/mL.
To `CCN(CC)C(=O)Oc1ccc(Cl)c2cccnc12` belongs 40.7 µg/mL (≈ 146 µM).
As to `Cc1cc(C)c(OCCN2CCOCC2)c(Cl)c1`, the kinetic solubility was found to be 26.6 µg/mL (≈ 98.6 µM). Against the preceding molecule, the solubility kinetic is about 1.5-fold lower.
To `Cc1ccc2c(=O)c(CN3CCCCCC3)c(C)[nH]c2c1C` belongs 40.6 µg/mL (≈ 136 µM); to `O=C(Cc1ccccc1F)NC1CCSc2ccccc21` (configuration not stated), 8.1 µg/mL (≈ 26.9 µM).
On to `N#CC1CCCc2c1[nH]c1ccc([N+](=O)[O-])cc21` (configuration not stated), for which the solubility (kinetic) was determined as 20.8 µg/mL (≈ 86.2 µM).
Consider `O=C(Cc1ccccc1[N+](=O)[O-])NCCCc1ccccc1`, for which the solubility (kinetic) stood at 43.2 µg/mL (≈ 145 µM).
Molecule `CN(C(=O)CCN1C(=O)c2ccccc2C1=O)c1ccccc1` returned a solubility (kinetic) of 36.5 µg/mL (≈ 118 µM).
As for `CC/C(C)=N/Oc1nc(C)cc(C)n1`, the solubility (kinetic) amounted to 28.5 µg/mL (≈ 147 µM). This solubility kinetic and that of the molecule before are within 1.5-fold of each other.
Regarding `NC(=S)Nc1ccc(F)cc1F`, the kinetic solubility was > 28.2 µg/mL.
